Results: ChEMBL document CHEMBL1201862, “PubChem BioAssay data set” (2004)
The source made the active and inactive calls.

Tests used:
CHO = experiment: cytotoxicity in TLR9-MyD88 CHO cells, dose response, cytotoxicity control for TLR9-MyD88 binding inhibitor project, cell-based, luminescence (AID 588339); format: functional, hamster; conditions: Cricetulus griseus;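 further: CHO cells stably coexpressing TLR9 and MyD88 fusions from primary screen; compound exposure lasted 48 hours before viability readout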
[1] = molecular target: T1, Zinc finger protein mex-5 (Caenorhabditis elegans, UniProt Q9XUB2); experiment: MEX-5/TCR-2 RNA interaction inhibitors, dose response, biochemical, C. elegans, fluorescence polarization (AID 1960)
T1 sequence (Q9XUB2 whole entry): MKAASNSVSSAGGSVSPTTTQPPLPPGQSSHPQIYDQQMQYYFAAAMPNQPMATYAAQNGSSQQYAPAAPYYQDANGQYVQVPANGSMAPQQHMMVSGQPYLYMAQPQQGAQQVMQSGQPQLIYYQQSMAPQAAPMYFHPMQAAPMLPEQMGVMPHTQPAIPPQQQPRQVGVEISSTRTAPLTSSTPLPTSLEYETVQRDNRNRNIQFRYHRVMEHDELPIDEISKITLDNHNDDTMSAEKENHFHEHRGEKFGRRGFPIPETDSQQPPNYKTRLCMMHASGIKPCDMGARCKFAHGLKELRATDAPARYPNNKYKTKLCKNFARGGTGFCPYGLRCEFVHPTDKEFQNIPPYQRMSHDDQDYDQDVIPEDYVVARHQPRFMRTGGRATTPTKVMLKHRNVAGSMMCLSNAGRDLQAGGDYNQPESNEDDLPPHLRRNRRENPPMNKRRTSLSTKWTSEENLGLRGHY

[2] = molecular target: T2, RNA-binding protein pos-1 (Caenorhabditis elegans, UniProt G5EF15); experiment: inhibitors of POS-1/mex-3 RNA binding, dose response, biochemical, fluorescence polarization (AID 1964);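 further: purified POS-1 fused to maltose binding protein made in E. coli; potency of compounds blocking POS-1 binding to fluorescent RNA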
T2 sequence (G5EF15 whole entry): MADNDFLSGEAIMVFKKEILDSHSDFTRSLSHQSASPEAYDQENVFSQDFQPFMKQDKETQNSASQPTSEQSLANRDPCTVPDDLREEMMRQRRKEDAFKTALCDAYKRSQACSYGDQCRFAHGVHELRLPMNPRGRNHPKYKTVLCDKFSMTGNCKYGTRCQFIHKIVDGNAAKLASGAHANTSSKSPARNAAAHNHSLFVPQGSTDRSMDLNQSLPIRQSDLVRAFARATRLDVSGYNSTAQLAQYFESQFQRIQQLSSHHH

Beta Lactamase = Beta Lactamase (Pseudomonas aeruginosa, UniProt Q932Y6); experiment: beta-lactamase reporter inhibitor potency, dose response, artefact control for TLR9-MyD88 binding inhibitor project, BLA reporter cells, FRET fluorescence (AID 588341); format: cell-based;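 further: cell based assay in CHO-K1 cells stably expressing beta-lactamase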
Sequence of Beta Lactamase (Q932Y6 whole entry): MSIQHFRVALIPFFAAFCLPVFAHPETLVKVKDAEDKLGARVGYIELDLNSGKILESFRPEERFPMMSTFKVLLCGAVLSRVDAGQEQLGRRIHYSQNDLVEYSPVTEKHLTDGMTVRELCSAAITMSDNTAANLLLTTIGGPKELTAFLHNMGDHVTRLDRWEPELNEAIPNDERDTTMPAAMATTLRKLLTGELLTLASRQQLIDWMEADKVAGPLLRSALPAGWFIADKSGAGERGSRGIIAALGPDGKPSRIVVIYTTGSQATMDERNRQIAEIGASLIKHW

Streptokinase A = molecular target: T3, Streptokinase A (Streptococcus pyogenes serotype M1, UniProt P10520); experiment: S. pyogenes streptokinase expression inhibitors, potency, dose response, plasminogen activation absorbance, OD405 (AID 1914); format: functional, Streptococcus pyogenes M1 GAS;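 further: secreted streptokinase activity via plasminogen activation per viability signal from cell pellet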
T3 sequence (P10520 whole entry): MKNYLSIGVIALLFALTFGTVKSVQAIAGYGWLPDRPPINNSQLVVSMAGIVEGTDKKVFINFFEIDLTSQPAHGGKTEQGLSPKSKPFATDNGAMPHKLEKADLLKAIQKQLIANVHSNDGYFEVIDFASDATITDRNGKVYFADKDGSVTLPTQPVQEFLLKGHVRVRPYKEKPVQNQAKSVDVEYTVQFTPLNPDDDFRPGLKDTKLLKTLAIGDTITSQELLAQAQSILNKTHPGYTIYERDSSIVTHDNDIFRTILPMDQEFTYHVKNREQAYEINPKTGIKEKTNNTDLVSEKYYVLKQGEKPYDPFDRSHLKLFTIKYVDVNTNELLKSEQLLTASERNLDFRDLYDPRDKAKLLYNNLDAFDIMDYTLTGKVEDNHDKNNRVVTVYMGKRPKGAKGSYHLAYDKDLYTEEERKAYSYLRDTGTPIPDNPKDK

Streptococcus = experiment: Group A Streptococcus viability loss, dose response, counter-screen for streptokinase expression inhibitor project, luminescence, BacTiterGlo (AID 1915); format: functional, organism-based;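 further: potency for reduction of bacterial viability or growth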
[3] = HEK293T cell cytotoxicity, dose response, cytotoxicity control for HIV Vif inhibitor project, cherry-picks (AID 652208); format: functional, cell-based
[4] = molecular target: Ras and Rab interactor 1/Tyrosine-protein kinase ABL1 (Homo sapiens, UniProt P00519+Q13671); format: functional;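 further: biochemical TR-FRET dose-response test measuring inhibition of binding between Rin1 and Abl proteins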
Sequence of Ras and Rab interactor 1/Tyrosine-protein kinase ABL1 (P00519 whole entry): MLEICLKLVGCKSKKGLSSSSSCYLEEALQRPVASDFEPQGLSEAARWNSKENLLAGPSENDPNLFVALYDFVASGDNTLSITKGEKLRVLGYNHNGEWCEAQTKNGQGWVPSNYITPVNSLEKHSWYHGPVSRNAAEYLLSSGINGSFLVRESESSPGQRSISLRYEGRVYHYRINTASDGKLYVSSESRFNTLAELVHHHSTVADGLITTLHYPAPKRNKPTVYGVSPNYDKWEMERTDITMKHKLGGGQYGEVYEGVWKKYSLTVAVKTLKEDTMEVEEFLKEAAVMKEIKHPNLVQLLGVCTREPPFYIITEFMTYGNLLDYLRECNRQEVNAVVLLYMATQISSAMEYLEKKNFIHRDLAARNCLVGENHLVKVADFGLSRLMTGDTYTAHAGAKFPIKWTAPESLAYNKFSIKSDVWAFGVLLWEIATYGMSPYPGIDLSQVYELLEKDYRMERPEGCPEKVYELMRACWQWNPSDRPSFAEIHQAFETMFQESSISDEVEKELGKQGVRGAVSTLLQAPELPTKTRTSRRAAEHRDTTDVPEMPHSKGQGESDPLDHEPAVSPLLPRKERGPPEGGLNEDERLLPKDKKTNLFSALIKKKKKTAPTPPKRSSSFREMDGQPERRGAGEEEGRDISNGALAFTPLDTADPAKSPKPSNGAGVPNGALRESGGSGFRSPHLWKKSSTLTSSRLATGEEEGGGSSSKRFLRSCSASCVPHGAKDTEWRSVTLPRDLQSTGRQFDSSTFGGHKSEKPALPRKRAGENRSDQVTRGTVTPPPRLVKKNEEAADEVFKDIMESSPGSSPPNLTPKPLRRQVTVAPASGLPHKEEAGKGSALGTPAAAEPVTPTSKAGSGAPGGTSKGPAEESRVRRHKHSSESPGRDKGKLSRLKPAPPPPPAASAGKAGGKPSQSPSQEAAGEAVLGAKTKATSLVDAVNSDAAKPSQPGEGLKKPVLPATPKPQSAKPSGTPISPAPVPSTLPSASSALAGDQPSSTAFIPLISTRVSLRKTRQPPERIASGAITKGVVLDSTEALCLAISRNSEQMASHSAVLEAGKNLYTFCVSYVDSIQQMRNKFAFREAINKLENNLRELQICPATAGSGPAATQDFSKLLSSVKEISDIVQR
Sequence of Ras and Rab interactor 1/Tyrosine-protein kinase ABL1 (Q13671 whole entry): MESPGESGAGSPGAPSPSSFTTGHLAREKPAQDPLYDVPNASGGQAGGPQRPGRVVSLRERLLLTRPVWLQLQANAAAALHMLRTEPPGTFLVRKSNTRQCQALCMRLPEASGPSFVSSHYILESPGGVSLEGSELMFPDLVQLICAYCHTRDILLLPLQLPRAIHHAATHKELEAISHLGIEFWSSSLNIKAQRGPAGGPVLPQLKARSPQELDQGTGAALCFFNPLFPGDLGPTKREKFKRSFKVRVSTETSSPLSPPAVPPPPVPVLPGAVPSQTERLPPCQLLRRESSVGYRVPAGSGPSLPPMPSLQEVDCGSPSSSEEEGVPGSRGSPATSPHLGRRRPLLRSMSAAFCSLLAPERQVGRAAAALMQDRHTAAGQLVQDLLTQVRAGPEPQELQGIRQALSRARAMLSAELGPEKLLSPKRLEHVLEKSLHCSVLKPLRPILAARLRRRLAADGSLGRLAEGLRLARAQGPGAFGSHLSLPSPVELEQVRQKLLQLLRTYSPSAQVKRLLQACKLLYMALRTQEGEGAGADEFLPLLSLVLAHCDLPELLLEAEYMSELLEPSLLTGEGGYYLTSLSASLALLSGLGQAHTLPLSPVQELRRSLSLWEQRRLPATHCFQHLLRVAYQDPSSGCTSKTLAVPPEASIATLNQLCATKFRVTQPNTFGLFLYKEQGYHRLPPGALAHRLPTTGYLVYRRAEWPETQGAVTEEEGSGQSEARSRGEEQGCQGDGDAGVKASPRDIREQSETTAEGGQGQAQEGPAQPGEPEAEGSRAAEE

H9c2 = experiment: cells; format: functional, cell-based; conditions: Rattus norvegicus, H9c2, Myocardium
[5] = molecular target: T4, Apoptotic protease-activating factor 1 (Homo sapiens, UniProt O14727); format: functional
T4 sequence (O14727 whole entry): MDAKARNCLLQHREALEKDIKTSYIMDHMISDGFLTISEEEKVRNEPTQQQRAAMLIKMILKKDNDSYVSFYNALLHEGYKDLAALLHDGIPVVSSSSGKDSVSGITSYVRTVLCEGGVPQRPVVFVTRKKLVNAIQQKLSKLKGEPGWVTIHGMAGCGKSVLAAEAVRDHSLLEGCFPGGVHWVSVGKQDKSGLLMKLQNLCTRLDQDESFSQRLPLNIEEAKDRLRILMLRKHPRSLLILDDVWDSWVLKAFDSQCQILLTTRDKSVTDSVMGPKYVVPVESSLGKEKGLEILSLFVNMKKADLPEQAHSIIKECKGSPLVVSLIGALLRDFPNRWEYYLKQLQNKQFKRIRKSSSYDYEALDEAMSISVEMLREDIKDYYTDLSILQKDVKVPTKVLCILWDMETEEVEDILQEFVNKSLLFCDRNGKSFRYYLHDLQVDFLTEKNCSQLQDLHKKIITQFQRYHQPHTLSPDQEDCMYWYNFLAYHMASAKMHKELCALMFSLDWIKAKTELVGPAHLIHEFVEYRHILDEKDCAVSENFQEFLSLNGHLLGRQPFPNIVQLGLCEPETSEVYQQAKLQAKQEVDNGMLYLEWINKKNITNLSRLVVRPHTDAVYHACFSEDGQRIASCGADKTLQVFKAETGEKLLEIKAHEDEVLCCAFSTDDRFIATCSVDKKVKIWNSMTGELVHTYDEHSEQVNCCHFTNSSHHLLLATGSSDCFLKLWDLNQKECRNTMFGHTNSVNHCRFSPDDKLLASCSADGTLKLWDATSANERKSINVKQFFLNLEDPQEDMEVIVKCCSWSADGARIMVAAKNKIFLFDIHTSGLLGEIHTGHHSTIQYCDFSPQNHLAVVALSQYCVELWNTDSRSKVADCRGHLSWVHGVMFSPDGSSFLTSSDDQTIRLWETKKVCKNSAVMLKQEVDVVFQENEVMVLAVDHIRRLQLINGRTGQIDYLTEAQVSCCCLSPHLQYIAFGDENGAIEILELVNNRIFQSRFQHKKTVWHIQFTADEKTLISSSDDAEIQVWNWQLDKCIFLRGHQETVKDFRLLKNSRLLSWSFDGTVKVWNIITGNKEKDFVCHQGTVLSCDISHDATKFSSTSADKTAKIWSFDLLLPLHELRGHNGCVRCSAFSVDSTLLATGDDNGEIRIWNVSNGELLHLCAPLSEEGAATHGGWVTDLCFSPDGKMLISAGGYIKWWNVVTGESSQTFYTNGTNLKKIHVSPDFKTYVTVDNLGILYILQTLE

Prothrombin = Prothrombin (Bos taurus, UniProt P00735); experiment: thrombin inhibition, dose response, biochemical, fluorescence polarization, uHTS hits (AID 602369); format: functional
[6] = molecular target: 26S proteasome non-ATPase regulatory subunit 14 (Homo sapiens, UniProt O00487); experiment: inhibition of proteasome subunit RPN11 – biochemical, fluorescence polarization, uHTS hits, confirmation (AID 602368); format: functional
[7] = molecular target: 72 kDa type IV collagenase (Homo sapiens, UniProt P08253); experiment: Dose Response validation of uHTS RPN11 inhibitor hits using a MMP-2 Fluorescence assay.; format: functional
Sequence of 72 kDa type IV collagenase (P08253 whole entry): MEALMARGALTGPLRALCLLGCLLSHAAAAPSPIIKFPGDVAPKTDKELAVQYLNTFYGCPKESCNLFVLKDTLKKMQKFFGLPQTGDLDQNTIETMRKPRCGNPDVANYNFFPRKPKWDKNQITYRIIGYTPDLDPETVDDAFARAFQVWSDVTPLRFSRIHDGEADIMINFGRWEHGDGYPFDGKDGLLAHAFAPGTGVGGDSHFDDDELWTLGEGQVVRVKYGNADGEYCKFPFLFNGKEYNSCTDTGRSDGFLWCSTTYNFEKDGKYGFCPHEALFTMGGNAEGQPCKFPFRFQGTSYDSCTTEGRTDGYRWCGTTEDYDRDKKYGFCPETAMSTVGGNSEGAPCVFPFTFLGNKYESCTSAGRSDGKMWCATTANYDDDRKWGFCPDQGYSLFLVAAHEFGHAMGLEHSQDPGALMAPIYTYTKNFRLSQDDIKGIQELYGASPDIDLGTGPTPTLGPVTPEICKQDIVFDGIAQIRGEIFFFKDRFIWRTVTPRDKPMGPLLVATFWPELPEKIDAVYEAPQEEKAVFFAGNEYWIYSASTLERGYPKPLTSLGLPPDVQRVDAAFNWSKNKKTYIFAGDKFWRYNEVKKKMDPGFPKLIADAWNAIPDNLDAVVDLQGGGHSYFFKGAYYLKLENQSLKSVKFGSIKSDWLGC

Coagulation factor XII = molecular target: T5, Coagulation factor XII (Homo sapiens, UniProt P00748); format: functional;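 further: activated factor XIIa alpha cleaving a fluorogenic AMC peptide substrate; inhibitor potency from loss of enzyme activity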
T5 sequence (P00748 whole entry): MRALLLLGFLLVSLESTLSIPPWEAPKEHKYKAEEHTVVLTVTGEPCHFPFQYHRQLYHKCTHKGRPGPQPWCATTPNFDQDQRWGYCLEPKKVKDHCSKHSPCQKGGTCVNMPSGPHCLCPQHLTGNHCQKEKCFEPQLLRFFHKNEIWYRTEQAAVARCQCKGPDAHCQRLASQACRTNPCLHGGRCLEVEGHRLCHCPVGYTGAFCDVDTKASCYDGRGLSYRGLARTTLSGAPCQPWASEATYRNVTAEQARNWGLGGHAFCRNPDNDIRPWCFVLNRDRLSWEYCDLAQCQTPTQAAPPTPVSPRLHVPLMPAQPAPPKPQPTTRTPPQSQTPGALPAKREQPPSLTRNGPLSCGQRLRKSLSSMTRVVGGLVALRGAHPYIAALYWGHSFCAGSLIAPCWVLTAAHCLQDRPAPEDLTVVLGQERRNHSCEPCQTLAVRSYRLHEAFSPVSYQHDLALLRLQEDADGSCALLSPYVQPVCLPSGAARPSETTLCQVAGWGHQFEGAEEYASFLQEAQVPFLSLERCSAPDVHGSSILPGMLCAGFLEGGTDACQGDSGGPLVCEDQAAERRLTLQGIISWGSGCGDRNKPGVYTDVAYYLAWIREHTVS

Melanocortin receptor 4 = Melanocortin receptor 4 (Homo sapiens, UniProt P32245); experiment: MC4R antagonist potency on cAMP, dose response, cell-based, TR-FRET, biased antagonists (AID 602298); format: functional;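 further: antagonist potency against agonist-stimulated cAMP production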
Sequence of Melanocortin receptor 4 (P32245 whole entry): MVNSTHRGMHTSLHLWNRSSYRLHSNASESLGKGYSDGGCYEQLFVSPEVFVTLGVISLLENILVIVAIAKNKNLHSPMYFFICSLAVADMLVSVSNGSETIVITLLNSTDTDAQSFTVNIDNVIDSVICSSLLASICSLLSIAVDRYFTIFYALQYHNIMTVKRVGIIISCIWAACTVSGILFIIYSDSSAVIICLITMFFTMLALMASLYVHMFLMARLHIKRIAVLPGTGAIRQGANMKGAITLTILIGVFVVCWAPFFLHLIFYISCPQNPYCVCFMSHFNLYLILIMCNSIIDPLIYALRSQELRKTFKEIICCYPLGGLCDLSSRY

[8] = nonselective inhibitors of cellular cAMP signaling, dose response, counter-screen for MC4R biased antagonist project, cell-based, TR-FRET cAMP detection (AID 602305); format: functional;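 further: U2OS cells stimulated with forskolin near its EC80 as the cAMP inducer; potency is for inhibition of forskolin-stimulated cAMP signaling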
[9] = molecular target: FAD-linked sulfhydryl oxidase ALR (Homo sapiens, UniProt P55789); experiment: inhibitors of human ALR sulfhydryl oxidase, dose response, biochemical, H2O2 detection, luminescence, cherry-pick (AID 493248)
Sequence of FAD-linked sulfhydryl oxidase ALR (P55789 whole entry, the tested form may be a part): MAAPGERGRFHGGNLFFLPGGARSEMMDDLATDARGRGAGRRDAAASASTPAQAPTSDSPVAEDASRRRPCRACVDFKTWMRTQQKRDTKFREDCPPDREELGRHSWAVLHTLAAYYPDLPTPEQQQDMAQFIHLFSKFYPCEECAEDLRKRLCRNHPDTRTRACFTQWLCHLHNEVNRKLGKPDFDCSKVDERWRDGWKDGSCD

[10] = molecular target: T6, Carboxy-terminal domain RNA polymerase II polypeptide A small phosphatase 1 (Homo sapiens, UniProt Q9GZU7); experiment: inhibitors of CTDSP1, concentration-response testing, biochemical assay, absorbance-based, actives from ultra-high-throughput screening (AID 540297); format: functional
T6 sequence (Q9GZU7 whole entry): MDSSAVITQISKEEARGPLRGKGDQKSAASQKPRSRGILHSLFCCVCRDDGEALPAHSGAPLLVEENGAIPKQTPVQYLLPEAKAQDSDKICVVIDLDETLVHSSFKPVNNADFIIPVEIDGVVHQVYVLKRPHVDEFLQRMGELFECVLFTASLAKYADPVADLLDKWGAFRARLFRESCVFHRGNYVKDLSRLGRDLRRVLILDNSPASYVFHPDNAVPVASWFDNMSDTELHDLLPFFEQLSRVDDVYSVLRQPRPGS

Large T antigen = Large T antigen (Simian virus 40, UniProt P03070); format: functional, Betapolyomavirus macacae;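 further: Confirmatory-stage PubChem screen for compounds that inhibit SV40 T antigen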
Genome polyprotein = Genome polyprotein (dengue virus type 2, UniProt P29990); experiment: Dengue-2 NS5 methyltransferase inhibitors, primary screen, biochemical, confirmation dose response (AID 588689); format: functional
[11] = molecular target: DNA (cytosine-5)-methyltransferase 1 (Homo sapiens, UniProt P26358); experiment: DNMT1 methyltransferase inhibitors, confirmation, biochemical, fluorescent molecular beacon (AID 602386); format: functional
Sequence of DNA (cytosine-5)-methyltransferase 1 (P26358 whole entry): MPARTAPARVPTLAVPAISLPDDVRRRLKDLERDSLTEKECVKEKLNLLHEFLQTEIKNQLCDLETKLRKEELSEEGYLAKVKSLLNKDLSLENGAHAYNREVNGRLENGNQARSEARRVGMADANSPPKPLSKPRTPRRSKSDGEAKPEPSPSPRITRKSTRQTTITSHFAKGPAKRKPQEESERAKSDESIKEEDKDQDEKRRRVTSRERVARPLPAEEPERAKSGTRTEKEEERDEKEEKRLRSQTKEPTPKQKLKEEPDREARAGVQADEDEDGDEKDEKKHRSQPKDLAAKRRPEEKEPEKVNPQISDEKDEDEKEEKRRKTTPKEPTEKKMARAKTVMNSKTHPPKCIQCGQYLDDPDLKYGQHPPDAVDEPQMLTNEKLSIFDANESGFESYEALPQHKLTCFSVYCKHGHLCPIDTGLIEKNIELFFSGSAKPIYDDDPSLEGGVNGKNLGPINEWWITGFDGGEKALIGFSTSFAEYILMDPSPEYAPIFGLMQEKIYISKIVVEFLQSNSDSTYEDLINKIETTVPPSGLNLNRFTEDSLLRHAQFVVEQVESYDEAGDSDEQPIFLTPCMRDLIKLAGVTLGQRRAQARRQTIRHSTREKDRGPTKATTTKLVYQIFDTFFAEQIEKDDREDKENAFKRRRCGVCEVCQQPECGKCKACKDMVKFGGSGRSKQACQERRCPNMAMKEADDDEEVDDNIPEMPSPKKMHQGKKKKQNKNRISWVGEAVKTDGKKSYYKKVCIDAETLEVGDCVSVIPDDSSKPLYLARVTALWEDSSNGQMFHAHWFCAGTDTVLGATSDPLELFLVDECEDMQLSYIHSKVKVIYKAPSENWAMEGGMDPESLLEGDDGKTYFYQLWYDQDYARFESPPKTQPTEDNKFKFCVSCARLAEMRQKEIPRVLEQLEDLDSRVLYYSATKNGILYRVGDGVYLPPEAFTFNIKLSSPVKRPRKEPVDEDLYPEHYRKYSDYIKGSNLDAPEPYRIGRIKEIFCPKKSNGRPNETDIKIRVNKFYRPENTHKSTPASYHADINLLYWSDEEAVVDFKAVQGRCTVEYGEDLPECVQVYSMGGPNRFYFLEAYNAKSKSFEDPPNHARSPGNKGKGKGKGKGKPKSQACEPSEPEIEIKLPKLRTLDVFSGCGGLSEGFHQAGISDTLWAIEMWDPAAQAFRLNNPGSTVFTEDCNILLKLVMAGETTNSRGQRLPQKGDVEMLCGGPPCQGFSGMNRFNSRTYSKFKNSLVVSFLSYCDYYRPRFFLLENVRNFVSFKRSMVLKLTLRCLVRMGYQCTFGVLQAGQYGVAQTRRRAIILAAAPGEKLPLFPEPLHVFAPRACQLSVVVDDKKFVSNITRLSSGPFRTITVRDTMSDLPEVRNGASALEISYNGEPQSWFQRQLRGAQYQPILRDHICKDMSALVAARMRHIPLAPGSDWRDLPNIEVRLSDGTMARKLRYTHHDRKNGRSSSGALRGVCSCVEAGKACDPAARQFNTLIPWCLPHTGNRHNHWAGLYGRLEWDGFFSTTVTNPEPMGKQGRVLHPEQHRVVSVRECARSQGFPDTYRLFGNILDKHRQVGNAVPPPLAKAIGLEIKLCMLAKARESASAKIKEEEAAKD

[12] = molecular target: T7, High affinity choline transporter 1 (Homo sapiens, UniProt Q9GZV3); experiment: CHT inhibitors, dose response, cell-based, 10-point CRC, membrane potential dye (AID 588401); format: functional;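 further: membrane potential dye fluorescence of choline-evoked depolarization via CHT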
T7 sequence (Q9GZV3 whole entry): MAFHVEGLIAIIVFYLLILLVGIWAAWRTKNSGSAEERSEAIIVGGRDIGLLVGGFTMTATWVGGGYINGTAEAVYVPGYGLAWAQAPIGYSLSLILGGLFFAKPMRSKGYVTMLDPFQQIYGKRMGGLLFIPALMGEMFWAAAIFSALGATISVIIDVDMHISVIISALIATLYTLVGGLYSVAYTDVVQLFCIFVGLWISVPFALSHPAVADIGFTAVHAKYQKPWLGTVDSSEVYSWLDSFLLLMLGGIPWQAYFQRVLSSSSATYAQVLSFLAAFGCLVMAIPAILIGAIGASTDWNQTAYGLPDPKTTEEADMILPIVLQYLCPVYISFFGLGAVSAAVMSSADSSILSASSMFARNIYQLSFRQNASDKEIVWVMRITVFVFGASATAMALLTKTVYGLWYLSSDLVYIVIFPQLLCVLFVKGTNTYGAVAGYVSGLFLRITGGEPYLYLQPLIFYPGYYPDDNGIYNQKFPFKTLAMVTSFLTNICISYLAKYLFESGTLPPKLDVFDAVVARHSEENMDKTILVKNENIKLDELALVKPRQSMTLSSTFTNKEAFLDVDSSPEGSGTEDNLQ

[13] = molecular target: T7, High affinity choline transporter 1; experiment: CHT inhibitors, dose response, cell-based, 5-point CRC, membrane potential dye (AID 504840); format: functional

## Nc1c(C(=O)Nc2nc3ccccc3s2)sc2nc(-c3cccs3)ccc12
CHO
  IC50: 5.51 µM (active)
[1]
  EC50: > 150 µM (inconclusive)
[2]
  EC50: 19.2 µM (inconclusive)
Beta Lactamase
  IC50: 3.93 µM (active)
Streptokinase A
  EC50: > 150 µM (not active)
Streptococcus
  EC50: 109 µM (active)
[3]
  AC50: 7.27 µM (active)

## Cc1ccc(-c2nn3c(-c4ccco4)nnc3c3ccccc23)cc1S(=O)(=O)NCC1CCCO1 (stereo unspecified)
[4]
  IC50: > 73.5 µM (inactive)
H9c2
  IC50: > 79 µM (inactive)
[5]
  IC50: 5.73 µM (active)

## O=[N+]([O-])c1ccc(N/N=C/c2c[nH]c3ccccc23)cc1
CHO
  IC50: 47.2 µM (inactive)
Prothrombin
  IC50: 2.05 µM (active)
Beta Lactamase
  IC50: 10.2 µM (inactive)
[6]
  IC50: 1.77 µM (active)
[7]
  IC50: > 100 µM (inactive)

## COc1ccc(CCn2c(C)cc(C(=O)CCl)c2C)cc1OC
Coagulation factor XII
  IC50: > 50 µM (inactive)
Melanocortin receptor 4
  IC50: > 64.6 µM (inactive)
[8]
  IC50: > 64.6 µM (inactive)

## O=C1NN(c2ccccc2)C(=O)/C1=C/c1ccc(-c2ccc(C(=O)O)cc2)o1
[9]
  AC50: 0.11 µM (active)
[10]
  IC50: 4.57 µM (active)
Large T antigen
  IC50: 20.6 µM (active)
Genome polyprotein
  IC50: > 100 µM (active)
[11]
  IC50: 10.2 µM (active)

## CCN1CCN(c2ncnc3scc(-c4ccc(C)cc4)c23)CC1
[12]
  IC50: 1.5 µM (active)
[13]
  IC50: 2.09 µM (active)

## CC1(C(=O)N/N=C/c2c(F)c(F)c(F)c(F)c2F)CC1(Cl)Cl (stereo unspecified)
Melanocortin receptor 4
  IC50: > 7.17 µM (active)
[8]
  IC50: > 64.6 µM (inactive)

## N#C/C(=C(/O)c1ccccc1F)c1nc2cc(C(F)(F)F)ccc2s1
[12]
  IC50: 6.31 µM (active)
[13]
  IC50: 10 µM (active)

## COC(=O)C(CC(C)C)NC(=O)/C=C/c1ccc(Cl)cc1 (stereo unspecified)
Melanocortin receptor 4
  IC50: > 64.6 µM (inactive)
[8]
  IC50: > 64.6 µM (inactive)
